# In US10561736B1, “Apoptosis inhibitor formulations for prevention of hearing loss” (Spiral Therapeutics, Inc., priority 2019, dated 2020):
# Columns and labels:
# [1] = tested on: HEI-OC1 cells; experiment: release of mitochondrial Cytc in HEI-OC1 cells with CisPt (flow cytometry); type: cell-based; details: HEI-OC1 cells, CisPt alone vs pre-incubated with LPT99, flow cytometry
# Procedure: Flow cytometry was also used to characterize the effect of LPT99 in the release of mitochondrial Cytc in HEI-OC1 cells in vitro with CisPt prevention.
# The effect of LPT99 on proliferation of non-apoptotic cells was studied. A549 cells were cultured in the presence of LPT99 for up to 6 days; the cell number was monitored by flow cytometry, and doubling time was calculated.
# [2] = tested on: rats; experiment: GLP auditory safety study after single IT administration; type: in vivo, rat
# Procedure: Gross observations were recorded, and selected organs were weighed.
molecule,measurement,setting,value
"N.N.[Cl][Pt][Cl] [CisPt, cisplatin, reference compound]",release of mitochondrial Cytc,[1],28%±6.6%
gentamicin [reference compound],weight-normalized heart weights,"[2]; male rats, 400 mg/mL gentamicin, Day 14, vs saline controls",statistically significant (p≤0.05) increased weight-normalized heart weights
same,"otoscopic examination of the tympanic membranes (erythema, edema, wounds)","[2]; rat, single IT, Days 1, 7, 14, vs control",increases in otoscopic scores
same,"mortalities, clinical abnormalities, body weight, food intake, clinical pathologies","[2]; rat, single bilateral IT 30 μL per ear, 14-day study",no LPT99- or gentamicin-related mortalities
